Calls of active or inactive are those of the source. No cut-off for these calls is given here.
Assays:
[1] = molecular target: C-X-C chemokine receptor type 4 (Homo sapiens, UniProt P61073); test: Antagonist activity at CXCR4 receptor in human CCRF-CEM cells assessed as inhibition of SDF-1alpha-induced calcium release preincubated for 25 mins followed by SDF-1alpha addition and monitered for 90 sec; assay type: functional, cell-based
[2] = Metabolic stability in human liver microsomes assessed as parent compound remaining incubated for 10 mins in presence of NADPH; assay type: ADME, Microsome; settings: read-out: Stabilty
[3] = Metabolic stability in rat liver microsomes assessed as parent compound remaining incubated for 10 mins in presence of NADPH; assay type: ADME, Microsome; settings: read-out: Stabilty
[4] = Metabolic stability in mouse liver microsomes assessed as parent compound remaining incubated for 10 mins in presence of NADPH; assay type: ADME, Microsome; settings: read-out: Stabilty
Cytochrome P450 2D6 = Cytochrome P450 2D6 (Homo sapiens, UniProt P10635); test: Inhibition of human recombinant CYP2D6 expressed in insect cells using AMMC as substrate preincubated for 30 mins followed by NADPH regenerating system addition and measured after 45 mins by fluorescence based assay; assay type: ADME
[5] = Permeability of the compound at pH 7.4 incubated for 4 hrs by PAMPA; assay type: ADME; settings: read-out: permeability
Cytochrome P450 3A4 = Cytochrome P450 3A4 (Homo sapiens, UniProt P08684); test: Inhibition of CYP3A4 (unknown origin); assay type: ADME
[6] = Cmax in CD-1 mouse at 30 mg/kg, po or at 3 mg/kg, iv by UPLC-MS/MS analysis; assay type: ADME, organism-based; design: dose 30 mg/kg; settings: in vivo
[7] = Clearance in CD-1 mouse at 30 mg/kg, po or at 3 mg/kg, iv by UPLC-MS/MS analysis; assay type: ADME, organism-based; settings: in vivo
[8] = Volume of distribution in CD-1 mouse at 30 mg/kg, po or at 3 mg/kg, iv by UPLC-MS/MS analysis; assay type: ADME, organism-based; settings: in vivo
[9] = AUC (0 to t) in CD-1 mouse at 30 mg/kg, po or at 3 mg/kg, iv measured after 8 hrs by LC-MS/MS analysis; assay type: ADME, organism-based; design: time 8 hrs, dose 30 mg/kg; settings: in vivo
[10] = Half life in CD1 mouse at 30 mg/kg, po or at 3 mg/kg, iv measured after 8 hrs by LC-MS/MS analysis; assay type: ADME, organism-based; settings: in vivo
[11] = Oral bioavailability in CD1 mouse at 30 mg/kg measured after 8 hrs by LC-MS/MS analysis; assay type: ADME, organism-based; settings: in vivo
[12] = molecular target: T1, C-X-C chemokine receptor type 1 (Homo sapiens) (UniProt P25024); test: Antagonist activity at CXCR1 (unknown origin) assessed as inhibition of ligand-induced calcium flux measured upto 10 uM; assay type: functional; settings: dose microM <=10
T1 sequence (whole entry): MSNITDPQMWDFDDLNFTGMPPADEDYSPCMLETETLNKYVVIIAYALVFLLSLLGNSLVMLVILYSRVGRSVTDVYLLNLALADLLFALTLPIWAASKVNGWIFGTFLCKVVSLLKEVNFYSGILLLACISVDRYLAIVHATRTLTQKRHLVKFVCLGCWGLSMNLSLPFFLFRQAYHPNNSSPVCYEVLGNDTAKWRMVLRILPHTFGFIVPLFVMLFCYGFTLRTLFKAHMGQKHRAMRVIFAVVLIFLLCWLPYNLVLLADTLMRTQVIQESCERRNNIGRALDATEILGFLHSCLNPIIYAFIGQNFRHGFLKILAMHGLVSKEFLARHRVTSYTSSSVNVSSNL

[13] = molecular target: T2, C-X-C chemokine receptor type 2 (Homo sapiens) (UniProt P25025); test: Antagonist activity at CXCR2 (unknown origin) assessed as inhibition of ligand-induced calcium flux measured upto 10 uM; assay type: functional; settings: dose microM <=10
T2 sequence (whole entry): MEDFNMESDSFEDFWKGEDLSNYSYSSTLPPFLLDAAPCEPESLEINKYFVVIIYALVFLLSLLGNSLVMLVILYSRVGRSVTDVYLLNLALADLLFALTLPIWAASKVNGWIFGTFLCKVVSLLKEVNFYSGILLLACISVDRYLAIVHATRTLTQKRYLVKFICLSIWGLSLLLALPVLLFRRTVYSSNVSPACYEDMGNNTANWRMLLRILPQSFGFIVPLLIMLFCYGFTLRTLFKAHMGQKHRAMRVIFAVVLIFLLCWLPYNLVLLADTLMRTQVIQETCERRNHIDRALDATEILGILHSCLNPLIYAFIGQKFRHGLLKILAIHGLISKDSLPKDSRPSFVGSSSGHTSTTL

[14] = molecular target: T3, C-X-C chemokine receptor type 3 (Homo sapiens) (UniProt P49682); test: Antagonist activity at CXCR3 (unknown origin) assessed as inhibition of ligand-induced calcium flux measured upto 10 uM; assay type: functional; settings: dose microM <=10
T3 sequence (whole entry): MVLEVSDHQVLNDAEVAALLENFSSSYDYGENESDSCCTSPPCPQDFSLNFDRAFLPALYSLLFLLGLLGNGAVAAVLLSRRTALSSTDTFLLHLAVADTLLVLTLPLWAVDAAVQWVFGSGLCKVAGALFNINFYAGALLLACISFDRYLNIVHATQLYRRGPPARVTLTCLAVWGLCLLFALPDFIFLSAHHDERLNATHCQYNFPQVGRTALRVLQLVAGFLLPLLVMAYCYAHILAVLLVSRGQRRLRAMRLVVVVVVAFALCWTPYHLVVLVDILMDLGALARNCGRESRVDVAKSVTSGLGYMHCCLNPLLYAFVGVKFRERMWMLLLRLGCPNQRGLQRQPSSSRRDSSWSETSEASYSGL

[15] = molecular target: T4, C-C chemokine receptor type 4 (Homo sapiens) (UniProt P51679); test: Antagonist activity at CCR4 (unknown origin) assessed as inhibition of ligand-induced calcium flux measured upto 10 uM; assay type: functional; settings: dose microM <=10
T4 sequence (whole entry): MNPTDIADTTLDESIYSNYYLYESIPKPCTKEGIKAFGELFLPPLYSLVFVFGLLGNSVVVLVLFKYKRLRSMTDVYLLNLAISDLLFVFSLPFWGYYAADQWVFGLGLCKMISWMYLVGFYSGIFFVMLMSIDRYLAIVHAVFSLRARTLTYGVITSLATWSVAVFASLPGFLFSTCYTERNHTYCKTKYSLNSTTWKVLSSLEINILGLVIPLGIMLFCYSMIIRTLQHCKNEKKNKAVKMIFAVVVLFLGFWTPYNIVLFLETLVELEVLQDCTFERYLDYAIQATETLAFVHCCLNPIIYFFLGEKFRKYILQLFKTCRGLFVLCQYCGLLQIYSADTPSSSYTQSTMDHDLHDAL

[16] = molecular target: C-C chemokine receptor type 5 (Homo sapiens) (UniProt P51681); test: Antagonist activity at CCR5 (unknown origin) assessed as inhibition of ligand-induced calcium flux measured upto 10 uM; assay type: functional; settings: dose microM <=10
[17] = molecular target: T5, C-C chemokine receptor type 6 (Homo sapiens) (UniProt P51684); test: Antagonist activity at CCR6 (unknown origin) assessed as inhibition of ligand-induced calcium flux measured upto 10 uM; assay type: functional; settings: dose microM <=10
T5 sequence (whole entry): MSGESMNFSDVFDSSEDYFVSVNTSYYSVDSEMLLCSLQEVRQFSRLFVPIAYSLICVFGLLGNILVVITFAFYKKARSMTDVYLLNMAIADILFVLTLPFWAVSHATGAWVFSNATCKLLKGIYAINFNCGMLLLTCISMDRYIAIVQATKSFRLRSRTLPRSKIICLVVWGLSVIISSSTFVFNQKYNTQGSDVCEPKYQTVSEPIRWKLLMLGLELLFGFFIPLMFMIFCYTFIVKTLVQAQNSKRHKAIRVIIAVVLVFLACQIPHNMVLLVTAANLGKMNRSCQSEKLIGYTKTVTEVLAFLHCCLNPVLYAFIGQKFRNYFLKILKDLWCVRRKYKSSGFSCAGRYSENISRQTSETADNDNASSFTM

[18] = molecular target: T6, C-C chemokine receptor type 7 (Homo sapiens) (UniProt P32248); test: Antagonist activity at CCR7 (unknown origin) assessed as inhibition of ligand-induced calcium flux measured upto 10 uM; assay type: functional; settings: dose microM <=10
T6 sequence (whole entry): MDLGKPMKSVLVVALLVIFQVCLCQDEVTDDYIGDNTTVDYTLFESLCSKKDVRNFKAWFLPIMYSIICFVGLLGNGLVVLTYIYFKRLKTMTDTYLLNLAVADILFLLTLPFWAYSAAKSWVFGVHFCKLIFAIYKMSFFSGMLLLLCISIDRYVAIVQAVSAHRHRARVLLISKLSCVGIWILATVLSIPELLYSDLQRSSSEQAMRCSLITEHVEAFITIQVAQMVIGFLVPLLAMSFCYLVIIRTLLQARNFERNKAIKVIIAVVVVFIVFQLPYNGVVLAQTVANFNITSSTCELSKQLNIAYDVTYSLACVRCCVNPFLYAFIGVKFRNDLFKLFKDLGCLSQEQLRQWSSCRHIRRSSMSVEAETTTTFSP

[19] = molecular target: Voltage-gated inwardly rectifying potassium channel KCNH2 (Homo sapiens, UniProt Q12809); test: Inhibition of human ERG by automated patch clamp method
cells = settings: Homo sapiens, CCRF-CEM
Description: Antagonist activity at muscarinic acetylcholine receptor in human CCRF-CEM cells assessed as inhibition of acetylcholine-induced calcium release preincubated for 25 mins followed by acetylcholine addition and monitered for 90 sec

[20] = C8h in CD-1 mouse at 30 mg/kg, po or at 3 mg/kg, iv measured up to 8 hrs by UPLC-MS/MS analysis; settings: in vivo

Chain of Cytochrome P450 3A4 (P08684 whole entry): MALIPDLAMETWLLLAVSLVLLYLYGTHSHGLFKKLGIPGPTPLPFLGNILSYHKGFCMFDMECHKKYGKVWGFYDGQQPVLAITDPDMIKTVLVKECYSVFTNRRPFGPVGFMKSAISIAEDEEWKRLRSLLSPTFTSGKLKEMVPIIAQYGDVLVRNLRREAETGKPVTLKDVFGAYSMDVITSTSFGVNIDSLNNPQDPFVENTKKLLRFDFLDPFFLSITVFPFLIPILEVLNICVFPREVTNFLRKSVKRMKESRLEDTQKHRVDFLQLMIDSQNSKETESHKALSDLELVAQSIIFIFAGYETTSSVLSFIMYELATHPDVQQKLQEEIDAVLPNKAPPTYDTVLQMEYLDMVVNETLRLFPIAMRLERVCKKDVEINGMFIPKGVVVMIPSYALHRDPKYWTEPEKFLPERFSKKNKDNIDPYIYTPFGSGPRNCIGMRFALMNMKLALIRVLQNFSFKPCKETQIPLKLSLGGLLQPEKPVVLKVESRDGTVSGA
Chain of Cytochrome P450 2D6 (P10635 whole entry): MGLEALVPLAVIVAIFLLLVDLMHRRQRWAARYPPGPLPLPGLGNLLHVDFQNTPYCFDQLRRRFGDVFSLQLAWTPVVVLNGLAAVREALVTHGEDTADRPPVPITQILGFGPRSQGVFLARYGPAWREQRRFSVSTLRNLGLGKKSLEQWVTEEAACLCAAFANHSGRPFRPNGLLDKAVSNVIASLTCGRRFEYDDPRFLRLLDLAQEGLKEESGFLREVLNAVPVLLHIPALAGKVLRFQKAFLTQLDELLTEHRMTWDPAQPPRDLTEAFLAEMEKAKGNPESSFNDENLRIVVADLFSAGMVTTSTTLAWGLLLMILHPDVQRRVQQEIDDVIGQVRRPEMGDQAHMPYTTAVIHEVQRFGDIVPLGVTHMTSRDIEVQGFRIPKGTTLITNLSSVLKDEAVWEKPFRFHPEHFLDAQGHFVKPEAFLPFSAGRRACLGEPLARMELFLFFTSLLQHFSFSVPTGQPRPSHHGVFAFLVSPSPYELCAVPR
Chain of C-C chemokine receptor type 5 (Homo sapiens) (P51681 whole entry, looked up): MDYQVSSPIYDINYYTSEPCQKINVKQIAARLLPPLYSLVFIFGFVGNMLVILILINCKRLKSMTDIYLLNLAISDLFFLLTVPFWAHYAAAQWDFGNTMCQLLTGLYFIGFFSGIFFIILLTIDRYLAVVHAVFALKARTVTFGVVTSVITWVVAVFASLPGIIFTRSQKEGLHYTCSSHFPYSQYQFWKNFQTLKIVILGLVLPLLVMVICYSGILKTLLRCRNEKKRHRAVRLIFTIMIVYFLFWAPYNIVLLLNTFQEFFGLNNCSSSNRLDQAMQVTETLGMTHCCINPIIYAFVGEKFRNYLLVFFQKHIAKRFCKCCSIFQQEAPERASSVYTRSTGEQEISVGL
Chain of C-X-C chemokine receptor type 4 (P61073 whole entry): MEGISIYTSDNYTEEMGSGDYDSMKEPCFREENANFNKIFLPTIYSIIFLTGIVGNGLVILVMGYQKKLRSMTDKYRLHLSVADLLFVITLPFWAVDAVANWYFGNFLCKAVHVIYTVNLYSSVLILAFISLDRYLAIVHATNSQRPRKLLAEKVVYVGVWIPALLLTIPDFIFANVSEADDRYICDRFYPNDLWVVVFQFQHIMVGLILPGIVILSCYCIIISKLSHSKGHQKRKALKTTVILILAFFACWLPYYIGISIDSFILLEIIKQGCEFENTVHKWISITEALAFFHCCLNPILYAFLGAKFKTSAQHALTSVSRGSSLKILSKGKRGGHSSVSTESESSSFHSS
Chain of Voltage-gated inwardly rectifying potassium channel KCNH2 (Q12809 whole entry): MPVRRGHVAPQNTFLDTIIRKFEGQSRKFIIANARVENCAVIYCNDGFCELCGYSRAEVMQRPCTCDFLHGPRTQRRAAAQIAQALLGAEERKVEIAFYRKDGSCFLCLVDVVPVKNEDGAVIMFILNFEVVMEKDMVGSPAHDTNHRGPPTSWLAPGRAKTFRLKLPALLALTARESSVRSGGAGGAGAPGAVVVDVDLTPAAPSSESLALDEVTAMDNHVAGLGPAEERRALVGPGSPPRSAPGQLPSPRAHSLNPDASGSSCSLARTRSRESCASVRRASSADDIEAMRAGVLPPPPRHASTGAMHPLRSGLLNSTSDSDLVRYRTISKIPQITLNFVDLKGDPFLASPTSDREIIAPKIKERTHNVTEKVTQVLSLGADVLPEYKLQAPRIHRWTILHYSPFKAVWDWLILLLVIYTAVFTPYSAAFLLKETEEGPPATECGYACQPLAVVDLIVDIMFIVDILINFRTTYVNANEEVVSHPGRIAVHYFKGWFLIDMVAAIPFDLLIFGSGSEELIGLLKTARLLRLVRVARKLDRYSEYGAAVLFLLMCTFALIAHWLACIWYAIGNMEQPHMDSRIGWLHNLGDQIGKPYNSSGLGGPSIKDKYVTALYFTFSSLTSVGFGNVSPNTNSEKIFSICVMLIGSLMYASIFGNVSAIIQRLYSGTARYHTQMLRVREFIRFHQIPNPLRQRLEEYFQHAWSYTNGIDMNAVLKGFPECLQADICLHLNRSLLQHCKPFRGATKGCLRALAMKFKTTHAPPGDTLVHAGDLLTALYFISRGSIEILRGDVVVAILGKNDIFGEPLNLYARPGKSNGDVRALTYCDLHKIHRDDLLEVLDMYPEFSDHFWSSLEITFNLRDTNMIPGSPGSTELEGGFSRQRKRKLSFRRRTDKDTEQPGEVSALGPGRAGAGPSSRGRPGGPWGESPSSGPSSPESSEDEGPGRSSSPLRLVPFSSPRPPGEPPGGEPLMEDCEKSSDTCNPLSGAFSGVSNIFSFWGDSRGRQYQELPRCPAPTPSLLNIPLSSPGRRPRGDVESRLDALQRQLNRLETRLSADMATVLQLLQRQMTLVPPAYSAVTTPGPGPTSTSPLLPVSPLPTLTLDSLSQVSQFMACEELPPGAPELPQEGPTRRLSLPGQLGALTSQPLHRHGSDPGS

CN1CCN(Nc2cccc3c2CC(CN(C)[C@H]2CCCc4cccnc42)NC3)CC1 (single isomer, unassigned)
IC50 [1]: 0.0474 µM | remaining at 10 min [2]: 73.6% | remaining at 10 min [3]: 21% | remaining at 10 min [4]: 85.8% | IC50 (Cytochrome P450 2D6): > 20 µM | Papp at 4 h [5]: 23.5 ×10⁻⁶ cm/s | IC50 (Cytochrome P450 3A4): > 20 µM | Cmax [6]: 791 ng/mL | clearance [7]: 30.5 mL/min/kg | Vd [8]: 9.35 L/kg | AUC(0-t) at 8 h [9]: 4000 ng·h/mL | half-life [10]: 3.5 h | bioavailability [11]: 24% | Activity [12]: inactive | Activity [13]: inactive | Activity [14]: inactive | Activity [15]: inactive | Activity [16]: inactive | Activity [17]: inactive | Activity [18]: inactive | IC50 [19]: 6.8 µM | IC50 (cells): > 16.7 µM | C8h at 8 h [20]: 297 ng/mL
